Assay results from PMC11672637, “7-O-Carboxylic Acid-Substituted 3-O-Alkyl Difluoroquercetin; An Aztreonam-Potentiating Agent Against Carbapenemase-Producing Pseudomonas aeruginosa Through Simultaneous Inhibition of Metallo-β-Lactamase and Efflux Pump” (Antibiotics, 2024).

Legend:
[1] = test system: Ambler Class A β-lactamases; parameters: method as in earlier work; details: Table S1; cited from earlier work
[2] = test system: Ambler Class C β-lactamases; parameters: method as in earlier work; details: Table S1; cited from earlier work
[3] = test system: Ambler Class D β-lactamases; parameters: method as in earlier work; details: Table S1; cited from earlier work
[4] = biological target: AmpC; assay: β-lactamase inhibition assay (nitrocefin); format: biochemical; details: nitrocefin substrate; read-out: BLi, IC50 AmpC
Protocol: (§1) Recombinant AmpC, OXA-48 (residues 23–265) and VIM-2 (residues 27–266) were prepared from Escherichia coli based on previously established protocols. KPC-2 and NDM-1 are commercially available from LifeSpan Biosciences, Inc., Seattle, WA, USA (LS-G26598) and RayBiotech, Inc., Peachtree Corners, GA, USA (230-00554), respectively. For β-lactamase inhibition assay, in a 96-well plate, 70–0.1 μM (in PBS) of the synthesized compounds (1~14) (100 μL) were mixed with diluted β-lactamase stock (2% DMSO in 200 μL). In a separate 96-well plate, a substrate of AmpC, KPC-2, OXA-48, and VIM-2 (nitrocefin) and NDM-1 (imipenem) were added into each well (final concentrations of 70 μM for nitrocefin and 100 μM for imipenem). After incubation at 37 °C for 20 min, the mixture of the synthesized compounds (1~14) and β-lactamase in one plate was added to the substrate in the other plate. Enzymatic hydrolysis of the substrate was then monitored by a Cytation 5 imaging multimode reader (BioTek Instruments Inc., Winooski, VT, USA) at 486 nm and 300 nm for nitrocefin and imipenem, respectively, for 15 min. The rates of hydrolysis in the presence of the inhibitors were determined when the reaction rate plateaued. Comparison of the enzymatic hydrolysis rates in the presence and the absence of inhibitors (100%) provided the percentage of enzyme inhibition at each concentration of the synthesized compounds. The IC50 values were obtained after non-linear regression (sigmoidal dose-responses) by GraphPad Prism 5 (GraphPad Software, Boston, MA, USA).

[5] = test system: efflux pump activity in P. aeruginosa (PA-017, blaNDM); assay: EtBr accumulation, inhibition of efflux pump activity; format: cell-based; details: EtBr fluorescence compared with positive control CCCP
Protocol: The NDM-producing P. aeruginosa clinical isolate (PA-017, blaNDM) (5 mL, LB medium) was grown to reach the mid-log phase. After centrifugation at 3500 rpm for 15 min, the bacterial pellet was washed twice with PBS and resuspended to OD600 = 0.3 in PBS. To each well of a flat-bottomed black 96-well plate, 182 µL of the bacterial suspension, 4 µL of glucose [final concentration = 0.4% (w/v)], 4 µL of the synthesized compounds or positive control CCCP, and 10 µL of EtBr (final concentration = 1 µg/mL) were added. The plate was incubated at 37 °C, and fluorescence emission from EtBr (λex 480 nm/λem 630 nm) was recorded every 2 min (for 60 min) using a Cytation 5 imaging multi-mode reader (BioTek Instruments, Inc., Winooski, VT, USA).

[6] = test system: NDM-1-Producing P. aeruginosa (PA-017, blaNDM); assay: MIC / checkerboard with ATM; format: cell-based; details: PA-017; for MIC: Pseudomonas aeruginosa, compound alone, read-out: MIC, Cmpd
[7] = rat, cited from earlier work
[8] = biological target: T1, KPC-2 (Klebsiella pneumoniae, UniProt Q9F663); assay: β-lactamase inhibition assay (nitrocefin); format: biochemical; details: nitrocefin substrate; read-out: BLi, IC50 KPC-2
T1 construct: purchased LifeSpan Biosciences, Inc. LS-G26598
T1 sequence (Q9F663 25-293, looked up, species assumed): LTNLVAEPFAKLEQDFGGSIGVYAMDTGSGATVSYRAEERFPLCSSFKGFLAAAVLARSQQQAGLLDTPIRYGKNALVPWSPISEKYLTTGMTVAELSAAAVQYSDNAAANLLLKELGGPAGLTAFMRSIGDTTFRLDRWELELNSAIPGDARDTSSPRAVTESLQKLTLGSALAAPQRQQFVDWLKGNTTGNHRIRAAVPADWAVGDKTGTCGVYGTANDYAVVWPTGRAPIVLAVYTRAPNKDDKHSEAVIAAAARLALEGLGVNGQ
Protocol: as §1

[9] = biological target: T2, OXA-48 (Klebsiella pneumoniae, UniProt Q6XEC0); assay: β-lactamase inhibition assay (nitrocefin); format: biochemical; details: nitrocefin substrate; read-out: BLi, IC50 OXA-48
T2 construct: OXA-48 (residues 23–265); made in house; host or cells: Escherichia coli
T2 sequence (Q6XEC0 23-265 limits assumed): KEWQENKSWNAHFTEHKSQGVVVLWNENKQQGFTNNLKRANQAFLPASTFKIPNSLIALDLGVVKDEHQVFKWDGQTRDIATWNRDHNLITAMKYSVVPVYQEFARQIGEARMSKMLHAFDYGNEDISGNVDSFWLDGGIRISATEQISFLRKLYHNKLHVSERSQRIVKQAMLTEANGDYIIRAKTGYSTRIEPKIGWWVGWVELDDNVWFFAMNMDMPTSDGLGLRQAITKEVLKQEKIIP
Protocol: as §1

[10] = biological target: T3, VIM-2 (Escherichia coli, UniProt Q5U7L7); assay: β-lactamase inhibition assay (nitrocefin); format: biochemical; details: nitrocefin substrate; read-out: BLi, IC50 VIM-2
T3 construct: VIM-2 (residues 27–266); made in house; host or cells: Escherichia coli
Protocol: as §1

[11] = biological target: T4, NDM-1 (Klebsiella pneumoniae, UniProt C7C422); assay: β-lactamase inhibition assay (imipenem); format: biochemical; details: imipenem substrate; read-out: BLi, IC50 NDM-1
T4 construct: purchased RayBiotech, Inc. 230-00554
T4 sequence (C7C422 29-270, looked up, species assumed): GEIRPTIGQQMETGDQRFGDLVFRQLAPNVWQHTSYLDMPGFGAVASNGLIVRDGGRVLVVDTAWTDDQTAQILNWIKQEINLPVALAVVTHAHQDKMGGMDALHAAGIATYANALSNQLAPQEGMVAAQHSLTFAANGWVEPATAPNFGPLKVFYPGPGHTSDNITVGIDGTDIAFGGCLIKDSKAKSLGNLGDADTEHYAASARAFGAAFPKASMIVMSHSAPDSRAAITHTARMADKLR
Protocol: as §1

Structure (SMILES) | BLi activity (Ambler Class A) [1] | BLi activity (Ambler Class C) [2] | BLi activity (Ambler Class D) [3] | IC50 [4] [µM] | EPi (inhibition of efflux pump activity) [5] | FD (fold decrease in the MIC of ATM upon combination with the compound) [6] | MIC [6] [µg/mL] | F (mean oral bioavailability) [7] [%] | AUClast ([7]; oral administration) [ng·h/mL] | Cmax ([7]; oral administration) [ng/mL] | IC50 [8] [µM] | IC50 [9] [µM] | IC50 [10] [µM] | IC50 [11] [µM]
NC(=O)[C@@H]1CC[C@@H]2CN1C(=O)N2OS(=O)(=O)O [AVI, avibactam] | inhibits | inhibits | inhibits | – | – | – | – | – | – | – | – | – | – | –
CC(C)(C)CCOc1c(-c2ccc(F)c(F)c2)oc2cc(O)cc(O)c2c1=O [Compound 1] | – | – | – | 18.9 ± 1.8 | ↑↑↑ ^e | 2 | > 256 | 0.27 | 20 | 10 | – | – | – | –
C[N+](C)(CCNC(=O)COc1cc(O)c2c(=O)c(OCCC3CCCCC3)c(-c3ccc(F)c(F)c3)oc2c1)CC(=O)[O-] [Compound 8, 2-((2-(2-((3-(2-Cyclohexylethoxy)-2-(3,4-difluorophenyl)-5-hydroxy-4-oxo-4H-chromen-7-yl)oxy)acetamido)ethyl)dimethylammonio)acetate] | – | – | – | > 50 | - ^f | 2 | > 256 | – | – | – | > 50 | > 100 | > 100 | > 50
CC(C)(C)CCOc1c(-c2ccc(F)c(F)c2)oc2cc(OCC(=O)Nc3ccccc3)cc(O)c2c1=O [Compound 9, 2-((2-(3,4-Difluorophenyl)-3-(3,3-dimethylbutoxy)-5-hydroxy-4-oxo-4H-chromen-7-yl)oxy)-N-phenylacetamide] | – | – | – | > 50 | - ^f | 1 | > 256 | – | – | – | 26.2 ± 1.5 | 6.4 ± 0.6 | 12.6 ± 1.2 | 7.6 ± 0.3
CC(C)(C)CCOc1c(-c2ccc(F)c(F)c2)oc2cc(OCC(=O)N3CCCCC3)cc(O)c2c1=O [Compound 10, 2-(3,4-Difluorophenyl)-3-(3,3-dimethylbutoxy)-5-hydroxy-7-(2-oxo-2-(piperidin-1-yl)ethoxy)-4H-chromen-4-one] | – | – | – | > 50 | - ^f | 1 | > 256 | – | – | – | > 50 | > 50 | > 100 | > 50
CC(C)(C)CCOc1c(-c2ccc(F)c(F)c2)oc2cc(OCC(=O)N[C@@H](CCCCN)C(=O)O)cc(O)c2c1=O.Cl [Compound 11, (S)-6-Amino-2-(2-((2-(3,4-difluorophenyl)-3-(3,3-dimethylbutoxy)-5-hydroxy-4-oxo-4H-chromen-7-yl)oxy)acetamido)hexanoic Acid Hydrochloride] | – | – | – | > 50 | - ^f | 1 | > 256 | – | – | – | > 50 | > 100 | > 100 | > 50
CN1CCCC1CCOc1cc(O)c2c(=O)c(OCCC(C)(C)C)c(-c3ccc(F)c(F)c3)oc2c1 (stereo not drawn) [Compound 12, 2-(3,4-Difluorophenyl)-3-(3,3-dimethylbutoxy)-5-hydroxy-7-(2-(1-methylpyrrolidin-2-yl)ethoxy)-4H-chromen-4-one] | – | – | – | > 50 | - ^f | 2 | > 256 | – | – | – | > 50 | > 100 | > 100 | > 50
CN1CCN(CCOc2cc(O)c3c(=O)c(OCCC(C)(C)C)c(-c4ccc(F)c(F)c4)oc3c2)CC1 [Compound 13, 2-(3,4-Difluorophenyl)-3-(3,3-dimethylbutoxy)-5-hydroxy-7-(2-(4-methylpiperazin-1-yl)ethoxy)-4H-chromen-4-one] | – | – | – | > 50 | - ^f | 2 | > 256 | – | – | – | > 50 | > 100 | > 100 | > 50
CN1CCN(CCOc2cc(O)c3c(=O)c(OCCC4CCCC4)c(-c4ccc(F)c(F)c4)oc3c2)CC1 [Compound 14, 3-(2-Cyclopentylethoxy)-2-(3,4-difluorophenyl)-5-hydroxy-7-(2-(4-methylpiperazin-1-yl)ethoxy)-4H-chromen-4-one] | – | – | – | > 50 | - ^f | 2 | > 256 | – | – | – | > 50 | > 100 | > 100 | > 50
